The record followed here is patent publication US8232314B2, “Compounds that protect against sensory hair cell death” (University of Washington, priority 2005, dated 2012).

Series [1] relates to lateral line hair cells of zebrafish. In words: Protection against cisplatin-induced lateral line hair cell death. Format: in vivo, zebrafish (Danio rerio). The settings on record: for protective against toxic effects of cisplatin on hair cells (identified by screening): exemplified platinum coordination complex (cisplatin). On the procedure:
(§1) Larvae were placed in a transfer device fashioned from a 50 ml conical tube with one end cut off and a mesh cover at the bottom. FM 1-43 (n-(3-triethylammoniumpropyl)-4-(4-dibutylamino]-styryl)pyridinium dibromide; Molecular Probes, Eugene, Oreg.) labeling of lateral line neuromasts was achieved by immersing free swimming larvae in 3 μM FM 1-43 in embryo medium for 30 seconds followed by 3 rinses in embryo medium. Using this procedure FM 1-43 is restricted to hair cells in neuromasts (Seiler and Nicolson, J Neurobiol (1999) 41:424-34). Yo-Pro-1 (Molecular Probes, Eugene, Oreg.) labeling of hair cell nuclei in lateral line neuromasts was achieved using a similar technique, incubating larvae in 2 μM Yo-Pro-1 in embryo medium for 30 minutes followed by 3 rinses. Using this procedure only the nuclei of hair cells are labeled.
Cisplatin from a 200 mM stock solution in DMSO (Sigma) was diluted in embryo medium to final concentrations of 300 μM, 500 μM, and 1 mM (0.05% DMSO) in each well of a six-well culture plate. Following vital dye staining live free-swimming five dpf larvae were transferred from control (neomycin-free) embryo medium to cisplatin-containing medium and incubated for 3 h.
To determine if compound F5 is protective against the otoxic effects of cisplatin, larvae were pretreated with compound F5 10 μm for 1 hour, exposed the larvae to 0, 300 μM, 500 μM and 1 mM of cisplatin for 3 hours, counted hair cells and compared to untreated controls.

The test system is the same in series [2]. The experiment in a line: Protection of zebrafish lateral line hair cells against neomycin-induced hair cell death. As to conditions: for protective against toxic effects of neomycin on hair cells (identified by screening): exemplified aminoglycoside (neomycin); for protection of hair cells from neomycin induced hair cell death in the small molecule screen: 5 dpf larvae, pretreated with compound at 10 μm, exposed to neomycin, hair cells evaluated after 1 hour; for long lasting protection, hair cell counts (FM 1-43) after neomycin: 200 μm neomycin, 24 hours post treatment; for protective effect against neomycin (dose finding): pretreated at 0-200 μM compound, neomycin 200 μM, compared to controls. On the set-up: protection of hair cells from neomycin induced hair cell death in the small molecule screen: dose or concentration left out as unconfirmed. Format: in vivo, zebrafish (Danio rerio). On the procedure: Zebrafish embryos were produced by paired matings of adult fish maintained at 28.5° C. in the University of Washington zebrafish facility. Beginning at 4 days post fertilization (dpf), larvae were fed live paramecia. Larvae were maintained at a density of 50 per 100 mm^2 petri dish in embryo medium (1 mM MgSO4, 120 μM KH2PO4, 74 μM Na2HPO4, 1 mM CaCl2, 500 μM KCl, […], and 500 μM NaHCO3 in dH2O) in a tissue incubator at 28.5° C. All animal procedures were approved by the University of Washington institutional Animal Care and Use Committee,
as §1
(§2) Zebrafish eggs of the AB/Wik wild-type strain were generated and maintained until 5 days post-fertilization temporally corresponding to the developmental maturation of the lateral line hair cells. 5 day postfertilization larvae were prelabeled with the fluorescent dyes FM 1-43, 3 μM (30 sec), and Yo-Pro-1, 2 μM (30 min) to identify the hair cells. Larvae were arrayed into 96 well plates containing embryo media. Synthetic small molecules from the Chembridge Corporation, San Diego, were transferred into the wells for a final concentration of 10 μM (0.05% DMSO). Following a one hour exposure to the compounds fish were treated with neomycin for an additional hour. Larvae were then analyzed in vivo with an epifluorescent Zeiss Axiovert 200M microscope with automated stage and a 40× objective to determine hair cell viability following neomycin exposure.
Neomycin sulfate from a 50 mM stock solution in dH2O (Sigma) was diluted in embryo medium to final concentrations of 25 μM, 50 μM, 100 μM, 200 μM and 400 μM in each well of a six-well culture plate. Following vital dye staining live free-swimming five dpf larvae were transferred from control (neomycin-free) embryo medium to neomycin-containing medium and incubated for 1 h. For time-lapse imaging, neomycin-containing medium was added directly to the imaging chamber.
In order to identify compounds that protect hair cells of the lateral line from the toxic effects of the aminoglycoside neomycin, 10,960 small molecules were screened. 5 dpf larvae were double labeled with the fluorescent dyes FM 1-43 and Yo-Pro-1, pretreated with the compounds at a dose of 10 μm, exposed to […], and their hair cells evaluated after 1 hour, FIG. 1.
To identify the optimal dose for evaluating the compounds' protective effects, larvae were pretreated with both compounds at 0, 1, 10, 50, 100 and 200 μM, and exposed to neomycin at 200 μM and compared to controls.
The neomycin susceptibility of larvae pretreated with 10 μM of compound F5 and controls at 0, 25, 100, 200 and 400 μm neomycin were compared.
To evaluate the protection conferred by compounds F5 and H10, hair cell counts were compared using the fluorescent dye FM 1-43 to identify hair cells in larvae pretreated with compound and controls, exposed to 200 μm neomycin after 24 hours, 48 hours and 72 hours. […] At 48 hours and beyond the protective effects of compound F5 and H10 cannot be determined as the larvae have repopulated the neuromasts with regenerated hair cells, FIG. 5.

Series [3] relates to hair cells. In words: High-throughput screen of FDA approved compound library for protection against aminoglycoside-induced hair cell death. Format: in vivo, zebrafish. As to conditions: library of 1040 FDA approved compounds, high-throughput assay. On the procedure:
as §2
A library of 1040 FDA approved compounds (NINDS Custom Collection II, Microsource, Inc.) were screened using a high-throughput assay.

Series [4] concerns lateral line hair cells. In words: Mechanotransduction-dependent activity of lateral line hair cells measured by FM 1-43 uptake. As to conditions: pretreated 1 hour at 10 μm, FM 1-43 3 μM for 30 seconds. Format: in vivo, zebrafish. On the procedure: To test whether compounds F5 and H10 inhibit mechanotransduction-dependent activity of lateral line hair cells, larvae were incubated in the dye FM1-43. Larvae were pretreated with each compound for 1 hour at 10 μm and exposed to FM 1-43, 3 μM, for 30 seconds. […] Neither compound F5 nor compound H10 inhibited the uptake of FM1-43, FIG. 7.

Series [5] has as its system zebrafish lateral line hair cells. In words: Neomycin-induced hair cell death of zebrafish lateral line hair cells. As to conditions: 5 dpf larvae, 1 hour exposure to 200 μM, FM 1-43 and Yo-Pro-1 labeling. The series is classed as in vivo. On the procedure:
FIGS. 1A and 1B illustrate labeling and neomycin-induced hair cell death of zebrafish lateral line hair cells. FIG. 1A depicts 5 days post fertilization (dpf) larvae hair cells labeled with FM 1-43 (red) to identify the cytoplasm of hair cells and Yo-Pro-1 (green) labeling the nucleus. […] Cytoplasmic (red) and nuclear fragments (green) are visible in FIG. 1B.
as §1
Neomycin sulfate from a 50 mM stock solution in dH2O (Sigma) was diluted in embryo medium to final concentrations of 25 μM, 50 μM, 100 μM, 200 μM and 400 μM in each well of a six-well culture plate. […]

“Also recorded” adds a separate entry of the source.

With `NC(=O)c1c(NC(=O)c2ccc(Cl)c([N+](=O)[O-])c2)sc2c1CCCC2` [Compound C, 2-[(4-chloro-3-nitrobenzoyl)amino]-4,5,6,7-tetrahydro-1-benzothiophene-3-carboxamide], the “protective against toxic effects of cisplatin on hair cells (identified by screening)” value in series [1] is “protective”. The “protective against toxic effects of neomycin on hair cells (identified by screening)” value in series [2] was “protective”.

On to `Nc1c2c(nc3ccccc13)CCCC2` [9-amino-1,2,3,4-tetrahydroacridine], for which the “protection against aminoglycoside-induced hair cell death (screen hit)” value (“protection … (screen hit)” for short) in series [3] was “protect against aminoglycoside-induced hair cell death”.

For the compound `COc1ccccc1OCCNCC(O)COc1cccc2[nH]c3ccccc3c12` (centres unmarked) [Carvedilol], in series [3], the “protection … (screen hit)” value is “protect against aminoglycoside-induced hair cell death”.

As to `CCN1CCc2c(sc(NC(=O)Nc3ccc(Cl)cc3)c2C(N)=O)C1` [Compound F5, 2-({[(4-chlorophenyl)amino]carbonyl}amino)-6-ethyl-4,5,6,7-tetrahydrothieno[2,3-c]pyridine-3-carboxamide], in series [1], the “protective against toxic effects of cisplatin on hair cells (identified by screening)” value is given as “protective”. The “protection against cisplatin induced hair cell death (hair cell counts)” value in series [1] (pretreated 10 μm for 1 hour, 0, 300 μM, 500 μM and 1 mM cisplatin for 3 hours) is on record as “significant protection against cisplatin induced hair cell death; also recorded: protective against cisplatin-induced lateral Sine hair cell death”. Further, the “inhibition of FM 1-43 uptake (mechanotransduction-dependent activity)” value in series [4] is recorded as “do not inhibit mechanotransduction-dependent activity; also recorded: do not prevent the rapid uptake of FM1-43”. The “neomycin susceptibility of pretreated larvae versus controls” value in series [2] (10 μM compound pretreatment, 0, 25, 100, 200 and 400 μm neomycin) is given as “less susceptible to neomycin than controls; also recorded: protects lateral line hair cells against neomycin”. Besides, in series [2], the “protection of hair cells from neomycin induced hair cell death in the small molecule screen” value was “protect hair cells from neomycin induced hair cell death”; the “long lasting protection, hair cell counts (FM 1-43) after neomycin” value was “Significant protection; also recorded: protective through 24 hours post neomycin treatment”; the “protective against toxic effects of neomycin on hair cells (identified by screening)” value is on record as “protective”; the “protective effect against neomycin (dose finding)” value is given as “protective against neomycin”.

Take `Cc1cccc(C(=O)NC(NC(=S)Nc2sc3c(c2C(N)=O)CCCC3)C(Cl)(Cl)Cl)c1` (centres unmarked) [Compound A, 2-{{({2,2,2-trichloro-1-[(3-methylbenzoyl)amino]ethyl}amino)carbonothioyl]amino}-4,5,6,7-tetrahydro-1-benzothiophene-3-carboxamide]: the “protective against toxic effects of cisplatin on hair cells (identified by screening)” value in series [1] is given as “protective”. Moreover, the “protective against toxic effects of neomycin on hair cells (identified by screening)” value in series [2] is listed as “protective”.

In the case of `NC(=O)c1c(NC(=O)CN2CCCCC2)sc2c1CCCC2` [Compound D, 2-[(1-piperidinylacetyl)amino]-4,5,6,7-tetrahydro-1-benzothiophene-3-carboxamide], the “protective against toxic effects of cisplatin on hair cells (identified by screening)” value in series [1] is recorded as “protective”. Besides, in series [2], the “protective against toxic effects of neomycin on hair cells (identified by screening)” value was “protective”.

For the compound `NC(=O)c1c(NC(=O)Nc2ccc(Cl)cc2)sc2c1CCCC2` [Compound B, 2-({[(4-chlorophenyl)amino]carbonyl}amino)-4,5,6,7-tetrahydro-1-benzothiophene-3-carboxamide], the “protective against toxic effects of cisplatin on hair cells (identified by screening)” value in series [1] is given as “protective”. For the same compound, the “protective against toxic effects of neomycin on hair cells (identified by screening)” value in series [2] is “protective”.

Turning to `CCN(CC)CCOC(=O)C(c1ccccc1)C1CCCCC1` (centres unmarked) [Drofenine], the “protection … (screen hit)” value in series [3] is “protect against aminoglycoside-induced hair cell death”.

Consider `NC(N)=NC(=O)c1nc(Cl)c(N2CCCCCC2)nc1N` [N,N-hexamethyleneamiloride], for which the “protection … (screen hit)” value in series [3] is “protect against aminoglycoside-induced hair cell death”.

As for `CC(COc1ccccc1)N(CCCl)Cc1ccccc1` (centres unmarked) [Phenoxybenzamine], in series [3], the “protection … (screen hit)” value is on record as “protect against aminoglycoside-induced hair cell death”.

With `COc1ccc(C(=O)NC(NC(=S)Nc2sc3c(c2C(N)=O)CCCC3)C(Cl)(Cl)Cl)cc1` (centres unmarked) [Compound H10, 2-{[({2,2,2-trichloro-1-[(4-methoxybenzoyl)amino]ethyl}amino)carbonothioyl]amino}-4,5,6,7-tetrahydro-1-benzothiophene-3-carboxamide], in series [1], the “protective against toxic effects of cisplatin on hair cells (identified by screening)” value is on record as “protective”. Besides, in series [4], the “inhibition of FM 1-43 uptake (mechanotransduction-dependent activity)” value is given as “do not inhibit mechanotransduction-dependent activity; also recorded: do not prevent the rapid uptake of FM1-43”. Besides, in series [2], the “protection of hair cells from neomycin induced hair cell death in the small molecule screen” value was “protect hair cells from neomycin induced hair cell death”; the “long lasting protection, hair cell counts (FM 1-43) after neomycin” value is recorded as “Significant protection; also recorded: protective through 24 hours post neomycin treatment”; the “protective against toxic effects of neomycin on hair cells (identified by screening)” value is “protective”; the “protective effect against neomycin (dose finding)” value is listed as “protective against neomycin”. Also, the “optimal protective dose against 200 μM neomycin” value in series [2] (larvae pretreated at 0, 1, 10, 50, 100 and 200 μM compound, 200 μM neomycin) was found to be 1 µM.

Regarding neomycin, the “hair cell death after neomycin exposure” value in series [5] is on record as “undergo apoptotic death”.
